Results published in patent publication US20200339625A1, “NOVEL RADIOMETAL-BINDING COMPOUNDS FOR DIAGNOSIS OR TREATMENT OF PROSTATE SPECIFIC MEMBRANE ANTIGEN-EXPRESSING CANCER” (PROVINCIAL HEALTH SERVICES AUTHORITY, priority 2017, published 2020).

Tests used:
[1] = test system: human serum; experiment: Plasma protein binding assay; assay type: in vitro ADME; settings: for free radioligand: human serum; for filter-bound radioactivity: n=3
Procedure: 1.16 Plasma Protein Binding Assay
Plasma protein binding assays were performed according to literature methods.^19 Briefly, 37 kBq of ^177Lu-PSMA-617 or ^177Lu-HTK01169 in 50 μL PBS was added into 200 μL human serum and the mixture was incubated at room temperature for […]. The mixture was then loaded onto a membrane filter (Nanosep®, 30 K, Pall Corporation, USA) and centrifuged for 45 min (30,130×g). Saline (50 μL) was added and centrifugation was continued for another 15 min. The top part with the membrane filter and the bottom part with the solution were counted on a gamma counter. For control, saline was used in place of human serum.

[2] = Radiation dosimetry calculation (OLINDA), extrapolated to humans (male); parameters: species or system human
Procedure: (§1) Internal dosimetry estimates were calculated using the organ level internal dose assessment (OLINDA) software v.2.0.^37 These estimates were performed for the mouse using the 25 g MOBY phantom,^38 for humans using the NURBS model for the adult male,^39 and for the tumors using the previously reported unit density sphere model.^40 All the phantoms and the sphere model are available in OLINDA and require the input of the total number of decays normalized by injected activity in units of MBq×h/MBq for each of the source organ/tumor.
Extrapolation of the mice biodistribution data to humans was performed using the method proposed by Kirschner et al.^41 and shown in the following equation: […]
Where morgan is the mass of the organ and M represents the total body mass. The subscripts indicate whether the values correspond to human or mouse. Masses for the organs and total body weight were taken from the simulated masses of the phantoms in OLINDA. […] The % ID/g of the blood was assumed to be the one for the heart contents of the phantom. This value was also used to calculate the bone marrow uptake based on the method described by Wessels et al.^42 in which we assumed a hematocrit fraction of 0.40 based on the patient values shown on that study. At the end, red marrow values used the blood measurements scaled by a factor of 0.32. In the human case, the fat, muscle, and seminal vesicles that are present in the biodistribution data are not modelled in the phantom so the numbers of decays present in these regions were included in the remainder of the body. The data was again fitted as for the mouse case and the values for the total number of decays in units of MBq×h/MBq were inputted in OLINDA.

[3] = test system: LNCaP tumor-bearing mice; experiment: Endoradiotherapy study; assay type: in vivo; settings: for Median survival: n=8
Procedure: (§2) SPECT/CT imaging and biodistribution were performed using NOD-scid IL2Rgammanu^null (NSG) male mice, and the endoradiotherapy study was conducted using NOD.Cg-Rag1^tm1MomII2rg^tm1WjI/SzJ (NRG) male mice. The mice were maintained and the experiments were conducted in according to the guidelines established by the Canadian Council on Animal Care and approved by Animal Ethics Committee of the University of British Columbia. Mice were anesthetized by inhalation with 2% isoflurane in oxygen, and implanted subcutaneously with 1×10^7 LNCaP cells posterior to the left shoulder. Mice were used for studies when the tumor reached 5-8 mm in diameter 5-6 weeks after inoculation.
For radiotherapy study, tumor-bearing mice were injected with saline (the control group), ^177Lu-PSMA-617 (18.5 MBq) or ^177Lu-HTK01169 (18.5, 9.3, 4.6, or 2.3 MBq) (n=8 per group). Tumor size and body weight were measured twice a week from the date of injection (Day 0) until completion of the study (Day 120). Endpoint criteria were defined as >20% weight loss, tumor volume >1000 mm^3, or active ulceration of the tumor.

[4] = test system: LNCaP tumors; experiment: Radiation dosimetry calculation, unit density sphere model; parameters: species or system mice
Procedure: as §1
Lastly, the numbers of decays in the tumors were also calculated based on the biodistribution data of the mice and the values were inputted into the sphere model available in OLINDA.

[5] = test system: mice bearing LNCaP tumor xenografts; experiment: SPECT/CT imaging of 177Lu-labeled compounds; assay type: in vivo; settings: for size of LNCaP tumor xenografts over time: injection of about 37 MBq, SPECT/CT
Procedure: as §2
SPECT/CT imaging experiments were conducted using the MILabs (Utrecht, the Netherlands) U-SPECT-II/CT scanner. Each tumor-bearing mouse was injected with ≠37 MBq of ^177Lu-labeled PSMA-617 or HTK01169 through the tail vein under anesthesia (2% isoflurane in oxygen). The mice were allowed to recover and roam freely in their cage and imaged at 4, 24, 72 and 120 hours after injection. At each time point, the mice were sedated again and positioned in the scanner. A 5-min CT scan was conducted first for anatomical reference with a voltage setting at 60 kV and current at 615 μA followed by a 60-min static emission scan acquired in list mode using an ultra-high resolution multi-pinhole rat-mouse (1 mm pinhole size) collimator. Data were reconstructed using the U-SPECT II software with a 20% window width on three energy windows. The photopeak window was centered at 208 keV, with lower scatter and upper scatter windows centered at 170 and 255 keV, respectively. The images were reconstructed using the ordered subset expectation maximization algorithm (3 iterations, 16 subsets), and a 0.5 mm post-processing Gaussian filter. Images were decay corrected to injection time in PMOD (PMOD Technologies, Switzerland) then converted to DICOM for qualitative visualization in the Inveon Research Workplace software (Siemens Medical Solutions USA, Inc.).

[6] = incubated with saline (control)
[7] = source organ Adrenals, human male
[8] = source organ Cortical bone, human male
[9] = source organ Heart contents, human male
[10] = source organ Heart wall, human male
[11] = source organ Kidneys, human male
[12] = source organ Left colon, human male
[13] = source organ Pancreas, human male
[14] = source organ Rectum, human male
[15] = source organ Red marrow, human male
[16] = source organ Remainder of the body, human male
[17] = source organ Right colon, human
[18] = source organ Small Intestine, human
[19] = source organ Spleen, human male
[20] = source organ Stomach contents, human male
[21] = source organ Testes, human male
[22] = source organ Urinary bladder contents, human male

In the case of O=C([O-])CN1CCN(CC(=O)[O-])CCN(CC(=O)NCC2CCC(C(=O)N[C@@H](Cc3ccc4ccccc4c3)C(=O)NCCCC[C@H](NC(=O)N[C@@H](CCC(=O)O)C(=O)O)C(=O)O)CC2)CCN(CC(=O)[O-])CC1.[177Lu+3] (stereo partly shown) [^177Lu-PSMA-617, reference compound], the free radioligand [1] was about 17%, the filter-bound radioactivity ([1]; incubated with human serum) was 82.7±0.32% and the filter-bound radioactivity [1, 6] was 5.21±1.42%. The Kinetics value [2, 7] was 1.00E−03 MBq-h/MBq, the Kinetics value ([2]; source organ Brain, human male) was 6.71E−03 MBq-h/MBq and the Kinetics value [2, 8] was 5.30E−03 MBq-h/MBq. The Kinetics value [2, 9] was 4.29E−03 MBq-h/MBq, the Kinetics value [2, 10] was 2.02E−03 MBq-h/MBq and the Kinetics value [2, 11] was 3.98E−01 MBq-h/MBq. For the same compound, the Kinetics value [2, 12] was 1.53E−03 MBq-h/MBq, the Kinetics value ([2]; source organ Liver, human male) was 2.32E−02 MBq-h/MBq and the Kinetics value ([2]; source organ Lungs, human male) was 2.41E−02 MBq-h/MBq. It also gave a Kinetics value [2, 13] of 8.55E−04 MBq-h/MBq, a Kinetics value [2, 14] of 7.16E−04 MBq-h/MBq and a Kinetics value [2, 15] of 3.15E−03 MBq-h/MBq. For the same compound, the Kinetics value [2, 16] was 5.39E−01 MBq-h/MBq, the Kinetics value [2, 17] was 1.53E−03 MBq-h/MBq and the Kinetics value [2, 18] was 6.65E−03 MBq-h/MBq. It also gave a Kinetics value [2, 19] of 6.93E−03 MBq-h/MBq, a Kinetics value [2, 20] of 5.06E−03 MBq-h/MBq and a Kinetics value [2, 21] of 3.72E−04 MBq-h/MBq. For the same compound, the Kinetics value [2, 22] was 3.15E−01 MBq-h/MBq, the “change of tumor size over time” value ([3]; 18.5 MBq) was “shrank initially but grew back later” and the Median survival ([3]; 18.5 MBq injected) was 58 days. For the same compound, the “kinetic uptake value used as input in OLINDA” value [4] was 3.80 MBq-h/MBq, the excretion pathway ([5]; SPECT/CT images) was “excreted mainly via the renal pathway” and the “size of LNCaP tumor xenografts over time” value [5] was “quick reduction in size”.

With O=C([O-])CN1CCN(CC(=O)[O-])CCN(CC(=O)NCCCC[C@H](NC(=O)[C@H](CCC(=O)O)NC(=O)CCCc2ccc(I)cc2)C(=O)NC[C@H]2CC[C@H](C(=O)N[C@@H](Cc3ccc4ccccc4c3)C(=O)NCCCC[C@H](NC(=O)N[C@@H](CCC(=O)O)C(=O)O)C(=O)O)CC2)CCN(CC(=O)[O-])CC1.[177Lu+3] [^177Lu-HTK01169] the free radioligand [1] was under 1%, the filter-bound radioactivity ([1]; incubated with human serum) was 99.2±0.02% and the filter-bound radioactivity [1, 6] was 25.8±3.42%. For the same compound, the Kinetics value [2, 7] was 1.55E−02 MBq-h/MBq, the Kinetics value ([2]; source organ Brain, human male) was 3.42E−02 MBq-h/MBq and the Kinetics value [2, 8] was 1.03E−02 MBq-h/MBq. For the same compound, the Kinetics value [2, 9] was 3.16E−01 MBq-h/MBq, the Kinetics value [2, 10] was 7.97E−02 MBq-h/MBq and the Kinetics value [2, 11] was 6.81E+00 MBq-h/MBq. For the same compound, the Kinetics value [2, 12] was 1.99E−02 MBq-h/MBq, the Kinetics value ([2]; source organ Liver, human male) was 4.98E−01 MBq-h/MBq and the Kinetics value ([2]; source organ Lungs, human male) was 6.03E−01 MBq-h/MBq. For the same compound, the Kinetics value [2, 13] was 2.05E−02 MBq-h/MBq, the Kinetics value [2, 14] was 9.27E−03 MBq-h/MBq and the Kinetics value [2, 15] was 2.46E−01 MBq-h/MBq. It also gave a Kinetics value [2, 16] of 1.21E+01 MBq-h/MBq, a Kinetics value [2, 17] of 1.99E−02 MBq-h/MBq and a Kinetics value [2, 18] of 8.61E−02 MBq-h/MBq. For the same compound, the Kinetics value [2, 19] was 2.03E−01 MBq-h/MBq, the Kinetics value [2, 20] was 1.44E−02 MBq-h/MBq and the Kinetics value [2, 21] was 1.25E−02 MBq-h/MBq. For the same compound, the Kinetics value [2, 22] was 1.72E−01 MBq-h/MBq, the “change of tumor size over time, dependence on injected radioactivity” value ([3]; 2.3-18.5 MBq) was “higher radioactivity leading to more effective and prolonged tumor growth inhibition” and the Median survival ([3]; 2.3 MBq injected) was 28 days. For the same compound, the Median survival ([3]; 4.6 MBq injected) was 61 days, the Median survival ([3]; 9.3 MBq injected) was 103 days and the “survival until end of study (Day 120)” value ([3]; 18.5 MBq) was “survived until the end of the study”. The Median survival ([3]; 18.5 MBq injected) was over 120 days, the “administered activity needed for similar treatment efficacy, relative to 177Lu-PSMA-617” value ([3]; mouse, in vivo) was “only a quarter” and the “kinetic uptake value used as input in OLINDA” value [4] was 31.72 MBq-h/MBq. For the same compound, the excretion pathway ([5]; SPECT/CT images) was “excreted mainly via the renal pathway”, the “tumor uptake (qualitative)” value ([5]; SPECT/CT images, compared with 177Lu-PSMA-617) was “Higher and sustained tumor uptake” and the “renal retention (qualitative)” value ([5]; SPECT/CT images, early time points (4 and 24 h), compared with 177Lu-PSMA-617) was “higher renal retention”. For the same compound, the “size of LNCaP tumor xenografts over time” value [5] was “quick reduction in size”.
